Active and inactive are the calls of the source. No rule for the calls is given here.
Tested on: CCRIS mutagenicity, Ames/micronucleus/aberration tests
Test: CCRIS mutagenicity studies
[1] = Test System: AMES SALMONELLA TYPHIMURIUM, Strain/Indicator: TA98, Metabolic Activation: NONE, Method: STANDARD PLATE
[2] = Test System: AMES SALMONELLA TYPHIMURIUM, Strain/Indicator: TA100, Metabolic Activation: HAMSTER, LIVER, S-9, AROCLOR 1254 (10%), Method: PREINCUBATION
[3] = Test System: AMES SALMONELLA TYPHIMURIUM, Strain/Indicator: TA100, Metabolic Activation: RAT, LIVER, S-9, AROCLOR 1254 (10%), Method: PREINCUBATION
[4] = Test System: AMES SALMONELLA TYPHIMURIUM, Strain/Indicator: TA1535, Metabolic Activation: HAMSTER, LIVER, S-9, AROCLOR 1254 (10%), Method: PREINCUBATION
[5] = Test System: AMES SALMONELLA TYPHIMURIUM, Strain/Indicator: TA1535, Metabolic Activation: RAT, LIVER, S-9, AROCLOR 1254 (10%), Method: PREINCUBATION
[6] = Test System: AMES SALMONELLA TYPHIMURIUM, Strain/Indicator: TA98, Metabolic Activation: HAMSTER, LIVER, S-9, AROCLOR 1254 (10%), Method: PREINCUBATION
[7] = Test System: AMES SALMONELLA TYPHIMURIUM, Strain/Indicator: TA98, Metabolic Activation: NONE, Method: PREINCUBATION
[8] = Test System: AMES SALMONELLA TYPHIMURIUM, Strain/Indicator: TA98, Metabolic Activation: RAT, LIVER, S-9, AROCLOR 1254 (10%), Method: PREINCUBATION
[9] = Test System: AMES SALMONELLA TYPHIMURIUM, Strain/Indicator: TA100, Metabolic Activation: NONE, Method: PREINCUBATION
[10] = Test System: AMES SALMONELLA TYPHIMURIUM, Strain/Indicator: TA1535, Metabolic Activation: NONE, Method: PREINCUBATION
[11] = Test System: AMES SALMONELLA TYPHIMURIUM, Strain/Indicator: TA1537, Metabolic Activation: HAMSTER, LIVER, S-9, AROCLOR 1254 (10%), Method: PREINCUBATION
[12] = Test System: AMES SALMONELLA TYPHIMURIUM, Strain/Indicator: TA1537, Metabolic Activation: NONE, Method: PREINCUBATION
[13] = Test System: AMES SALMONELLA TYPHIMURIUM, Strain/Indicator: TA1537, Metabolic Activation: RAT, LIVER, S-9, AROCLOR 1254 (10%), Method: PREINCUBATION

ClCC1CO1 (configuration not stated)
mutagenic call (End Point: IN VITRO CHROMOSOMAL ABERRATIONS, Test System: CHL CELLS, Metabolic Activation: NONE): active; positive (structural changes) | mutagenic call (End Point: IN VITRO CHROMOSOMAL ABERRATIONS, Test System: CHL CELLS, Metabolic Activation: RAT, LIVER, S-9, SODIUM PHENOBARBITAL AND 5,6-BENZOFLAVONE): active; positive (structural changes) | mutagenic call (Test System: AMES SALMONELLA TYPHIMURIUM, Strain/Indicator: G46, Metabolic Activation: NONE, Method: STANDARD PLATE): active; positive | mutagenic call (Test System: AMES SALMONELLA TYPHIMURIUM, Strain/Indicator: TA97, Metabolic Activation: NONE, Method: STANDARD PLATE): active; positive | mutagenic call (Test System: AMES SALMONELLA TYPHIMURIUM, Strain/Indicator: TA97, Metabolic Activation: RAT, LIVER, S-9, AROCLOR 1254, Method: STANDARD PLATE): inactive; negative | mutagenic call [1]: inactive; negative | mutagenic call (Test System: AMES SALMONELLA TYPHIMURIUM, Strain/Indicator: TA98, Metabolic Activation: RAT LIVER S-9, PHENOBARBITAL AND BETA-NAPHTHOFLAVONE, Method: PREINCUBATION): active; positive | mutagenic call (Test System: AMES SALMONELLA TYPHIMURIUM, Strain/Indicator: TA98, Metabolic Activation: RAT, LIVER, S-9, AROCLOR 1254, Method: STANDARD PLATE): inactive; negative | mutagenic call (Test System: AMES SALMONELLA TYPHIMURIUM, Strain/Indicator: TA98, Metabolic Activation: S-9, Method: PREINCUBATION): inactive; negative | mutagenic call [2]: active; positive | mutagenic call (Test System: AMES SALMONELLA TYPHIMURIUM, Strain/Indicator: TA100, Metabolic Activation: RAT LIVER S-9, PHENOBARBITAL AND BETA-NAPHTHOFLAVONE, Method: PREINCUBATION): active; positive | mutagenic call [3]: active; positive | mutagenic call (Test System: AMES SALMONELLA TYPHIMURIUM, Strain/Indicator: TA100, Metabolic Activation: S-9, Method: PREINCUBATION): active; positive | mutagenic call (Test System: AMES SALMONELLA TYPHIMURIUM, Strain/Indicator: TA104, Metabolic Activation: NONE, Method: STANDARD PLATE): active; positive | mutagenic call [4]: active; positive | mutagenic call (Test System: AMES SALMONELLA TYPHIMURIUM, Strain/Indicator: TA1535, Metabolic Activation: NONE, Method: DESICCATOR): active; positive | mutagenic call (Test System: AMES SALMONELLA TYPHIMURIUM, Strain/Indicator: TA1535, Metabolic Activation: NONE, Method: STANDARD PLATE): active; positive | mutagenic call (Test System: AMES SALMONELLA TYPHIMURIUM, Strain/Indicator: TA1535, Metabolic Activation: RAT LIVER S-9, PHENOBARBITAL AND BETA-NAPHTHOFLAVONE, Method: PREINCUBATION): active; positive | mutagenic call [5]: active; positive | mutagenic call (Test System: AMES SALMONELLA TYPHIMURIUM, Strain/Indicator: TA1535, Metabolic Activation: RAT, LIVER, S-9, AROCLOR 1254, Method: STANDARD PLATE): active; positive | mutagenic call (Test System: AMES SALMONELLA TYPHIMURIUM, Strain/Indicator: TA1535, Metabolic Activation: S-9, Method: PREINCUBATION): active; positive | mutagenic call (Test System: AMES SALMONELLA TYPHIMURIUM, Strain/Indicator: TA1537, Metabolic Activation: NONE, Method: STANDARD PLATE): inactive; negative | mutagenic call (Test System: AMES SALMONELLA TYPHIMURIUM, Strain/Indicator: TA1537, Metabolic Activation: RAT LIVER S-9, PHENOBARBITAL AND BETA-NAPHTHOFLAVONE, Method: PREINCUBATION): inactive; negative | mutagenic call (Test System: AMES SALMONELLA TYPHIMURIUM, Strain/Indicator: TA1537, Metabolic Activation: RAT, LIVER, S-9, AROCLOR 1254, Method: STANDARD PLATE): inactive; negative | mutagenic call (Test System: AMES SALMONELLA TYPHIMURIUM, Strain/Indicator: TA1537, Metabolic Activation: S-9, Method: PREINCUBATION): inactive; negative | mutagenic call (Test System: AMES SALMONELLA TYPHIMURIUM, Strain/Indicator: TA4001, Metabolic Activation: NONE, Method: STANDARD PLATE): active; positive | mutagenic call (Test System: AMES SALMONELLA TYPHIMURIUM, Strain/Indicator: TA4006, Metabolic Activation: NONE, Method: STANDARD PLATE): active; positive | mutagenic call (Test System: CHINESE HAMSTER V-79, Strain/Indicator: V-79/6-THIOGUANINE, Metabolic Activation: NONE, Method: FLASK ASSAY): inactive; negative | mutagenic call (Test System: E. COLI, Strain/Indicator: WP2, Metabolic Activation: NONE, Method: STANDARD PLATE): active; positive | mutagenic call (Test System: E. COLI, Strain/Indicator: WP2, Metabolic Activation: RAT, LIVER, S-9, AROCLOR 1254, Method: STANDARD PLATE): active; positive | mutagenic call (Test System: E. COLI, Strain/Indicator: WP2 UVRA, Metabolic Activation: NONE, Method: PREINCUBATION): active; positive | mutagenic call (Test System: E. COLI, Strain/Indicator: WP2 UVRA, Metabolic Activation: NONE, Method: STANDARD PLATE): active; positive | mutagenic call (Test System: E. COLI, Strain/Indicator: WP2 UVRA, Metabolic Activation: RAT, LIVER, S-9, AROCLOR 1254, Method: STANDARD PLATE): active; positive | mutagenic call (Test System: E. COLI, Strain/Indicator: WP2 UVRA, Metabolic Activation: S-9, Method: PREINCUBATION): active; positive | mutagenic call (Test System: E.COLI, Strain/Indicator: WP2UVRA, Metabolic Activation: NONE, Method: PREINCUBATION): active; positive | mutagenic call (Test System: E.COLI, Strain/Indicator: WP2UVRA, Metabolic Activation: RAT LIVER S-9, PHENOBARBITAL AND BETA-NAPHTHOFLAVONE, Method: PREINCUBATION): active; positive

Nc1ccc(N=Nc2cccc(N)c2N)cc1
mutagenic call (Test System: AMES SALMONELLA TYPHIMURIUM, Strain/Indicator: TA98, Method: PREINCUBATION): active; positive | mutagenic call (Test System: AMES SALMONELLA TYPHIMURIUM, Strain/Indicator: TA100, Method: PREINCUBATION): active; positive

Nc1c(N=Nc2ccc(-c3ccc(NN=C4C=CC(=O)C=C4)cc3)cc2)c(S(=O)(=O)O)cc2c1C(=O)/C(=N/Nc1ccccc1)C(S(=O)(=O)O)=C2
mutagenic call [6]: inactive; negative | mutagenic call [7]: inactive; negative | mutagenic call [1]: inactive; negative | mutagenic call [8]: inactive; negative | mutagenic call (Test System: AMES SALMONELLA TYPHIMURIUM, Strain/Indicator: TA98, Metabolic Activation: RAT, LIVER, S-9, PHENOBARBITAL, Method: STANDARD PLATE): inactive; negative | mutagenic call [2]: inactive; negative | mutagenic call [9]: inactive; negative | mutagenic call (Test System: AMES SALMONELLA TYPHIMURIUM, Strain/Indicator: TA100, Metabolic Activation: NONE, Method: STANDARD PLATE): inactive; negative | mutagenic call [3]: inactive; negative | mutagenic call (Test System: AMES SALMONELLA TYPHIMURIUM, Strain/Indicator: TA100, Metabolic Activation: RAT, LIVER, S-9, PHENOBARBITAL, Method: STANDARD PLATE): inactive; negative | mutagenic call [4]: active; positive | mutagenic call [10]: inactive; negative | mutagenic call (Test System: AMES SALMONELLA TYPHIMURIUM, Strain/Indicator: TA1535, Metabolic Activation: RAT LIVER, S-9, AROCLOR 1254 (10%), Method: PREINCUBATION): inactive; negative | mutagenic call [5]: active; positive | mutagenic call [11]: inactive; negative | mutagenic call [12]: inactive; negative | mutagenic call [13]: inactive; negative

C=C(C)C1CC=C(C)C(O)C1 (configuration not stated)
mutagenic call [6]: inactive; negative | mutagenic call [7]: inactive; negative | mutagenic call [8]: inactive; negative | mutagenic call [2]: inactive; negative | mutagenic call [9]: inactive; negative | mutagenic call [3]: inactive; negative | mutagenic call [4]: inactive; negative | mutagenic call [10]: inactive; negative | mutagenic call [5]: inactive; negative | mutagenic call [11]: inactive; negative | mutagenic call [12]: inactive; negative | mutagenic call [13]: inactive; negative

Reference: PubChem BioAssay AID1259407 (Chemical Carcinogenesis Research Information System (CCRIS), 2018)
